Source: US20230108906A1, “SUBSTITUTED BICYCLIC AND TRICYCLIC UREAS AND AMIDES, ANALOGUES THEREOF, AND METHODS USING SAME” (Arbutus Biopharma Corporation, priority 2019, published 2023)

test system: HBV rcDNA in HepDE19 cells; test: HepDE19 assay with bDNA quantitation of HBV rcDNA; format: cell-based, hepatitis B virus (HBV); conditions: Hepatitis B virus, HepDE19, 168 h, inhibition of rcDNA formation in HepDE19 cells (HepG2 derived), Tet-free medium, 7 day incubation, Quantigene 2.0 bDNA readout, top concentration 25 μM; read-out: DE-19bDNA EC50
How it was run: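 HepDE19 cells (HepG2-derived, Tet-regulated HBV) switched to Tet-free medium, then treated 7 days at 37 °C with compound, 8-point titration from 25 μM, 0.5% DMSO. rcDNA quantified by bDNA with HBV probes; EC50/EC90 via 4-parameter fit. Viability (CC50) by CellTiter-Glo ATP on 5,000 cells/well after 4 days.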

| SMILES | EC50 |
| --- | --- |
| CN(C(=O)N1Cc2ccc(Br)cc2C1)[C@@H]1COCc2[nH]c(=O)c3cc(F)c(F)cc3c21 [Compound 220, (S)-5-Bromo-N-(8,9-difluoro-6-oxo-1,4,5,6-tetrahydro-2H-pyrano[3,4-c]isoquinolin-1-yl)-N-methylisoindoline-2-carboxamide] | 13 µM |
| CN(C(=O)N1Cc2ccc(F)cc2C1)[C@@H]1COCc2[nH]c(=O)c3cc(F)c(F)cc3c21 [Compound 221, (S)—N-(8,9-Difluoro-6-oxo-1,4,5,6-tetrahydro-2H-pyrano[3,4-c]isoquinolin-1-yl)-5-fluoro-N-methylisoindoline-2-carboxamide] | 5.9 µM |
| CN(C(=O)Nc1ccc(F)c(C(F)F)c1)[C@@H]1COCc2c1c1cc(F)c(F)cc1c(=O)n2C [Compound 233, (S)-1-(8,9-Difluoro-5-methyl-6-oxo-1,4,5,6-tetrahydro-2H-pyrano[3,4-c]isoquinolin-1-yl)-3-(3-(difluoromethyl)-4-fluorophenyl)-1-methylurea] | 0.02 µM |
| COc1nc2c(c3cc(F)c(F)cc13)[C@H](N(C)C(=O)Nc1ccc(F)c(C(F)F)c1)COC2 [Compound 234, (S)-1-(8,9-Difluoro-6-methoxy-1,4-dihydro-2H-pyrano[3,4-c]isoquinolin-1-yl)-3-(3-(difluoromethyl)-4-fluorophenyl)-1-methylurea] | 0.05 µM |
| CN(C(=O)Nc1ccc(F)c(Cl)c1)C1COCc2nc(NCCN)c3cc(F)c(F)cc3c21 (stereo not shown) [Compound 240] | 0.59 µM |
| CN(C(=O)Nc1ccc(F)c(Cl)c1)[C@@H]1COCc2c1c1cc(F)c(F)cc1c(=O)n2C [Compound 243, (S)-3-(3-Chloro-4-fluorophenyl)-1-(8,9-difluoro-5-methyl-6-oxo-1,4,5,6-tetrahydro-2H-pyrano[3,4-c]isoquinolin-1-yl)-1-methylurea] | 0.02 µM |
| COc1nc2c(c3cc(F)c(F)cc13)[C@H](N(C)C(=O)Nc1ccc(F)c(Cl)c1)COC2 [Compound 244, (S)-3-(3-Chloro-4-fluorophenyl)-1-(8,9-difluoro-6-methoxy-1,4-dihydro-2H-pyrano[3,4-c]isoquinolin-1-yl)-1-methylurea] | 0.08 µM |
| CN(C(=O)Nc1ccc(F)c(C(F)F)c1)[C@@H]1COCc2c1c1cc(F)c(F)cc1c(=O)n2CCO [Compound 251, (S)-1-(8,9-Difluoro-5-(2-hydroxyethyl)-6-oxo-1,4,5,6-tetrahydro-2H-pyrano[3,4-c]isoquinolin-1-yl)-3-(3-(difluoromethyl)-4-fluorophenyl)-1-methylurea] | 0.03 µM |
| CN(C(=O)Nc1ccc(F)c(C(F)F)c1)[C@@H]1COCc2nc(OCCN)c3cc(F)c(F)cc3c21 [Compound 252, (S)-1-(6-(2-Aminoethoxy)-8,9-difluoro-1,4-dihydro-2H-pyrano[3,4-c]isoquinolin-1-yl)-3-(3-(difluoromethyl)-4-fluorophenyl)-1-methylurea] | 0.02 µM |
| CN(C(=O)Nc1ccc(F)c(C(F)F)c1)[C@@H]1COCc2c1c1cc(F)c(F)cc1c(=O)n2CCN [Compound 253, (S)-1-(5-(2-Aminoethyl)-8,9-difluoro-6-oxo-1,4,5,6-tetrahydro-2H-pyrano[3,4-c]isoquinolin-1-yl)-3-(3-(difluoromethyl)-4-fluorophenyl)-1-methylurea] | 0.91 µM |
| CN(C(=O)Nc1ccc(F)c(Cl)c1)[C@@H]1COCc2c1c1cc(F)c(F)cc1c(=O)n2CCO [Compound 254, (S)-3-(3-Chloro-4-fluorophenyl)-1-(8,9-difluoro-5-(2-hydroxyethyl)-6-oxo-1,4,5,6-tetrahydro-2H-pyrano[3,4-c]isoquinolin-1-yl)-1-methylurea] | 0.058 µM |
| CN(C(=O)Nc1ccc(F)c(Cl)c1)[C@@H]1COCc2nc(OCCO)c3cc(F)c(F)cc3c21 [Compound 255, (S)-3-(3-Chloro-4-fluorophenyl)-1-(8,9-difluoro-6-(2-hydroxyethoxy)-1,4-dihydro-2H-pyrano[3,4-c]isoquinolin-1-yl)-1-methylurea] | 0.049 µM |
| CN(C(=O)Nc1ccc(F)c(C(F)F)c1)[C@@H]1COCc2nc(OCCO)c3cc(F)c(F)cc3c21 [Compound 256, (S)-1-(8,9-Difluoro-6-(2-hydroxyethoxy)-1,4-dihydro-2H-pyrano[3,4-c]isoquinolin-1-yl)-3-(3-(difluoromethyl)-4-fluorophenyl)-1-methylurea] | 0.019 µM |
| CN(C(=O)Nc1ccc(F)c(Cl)c1)[C@@H]1COCc2c1c1cc(F)c(F)cc1c(=O)n2CCN [Compound 257, (S)-1-(5-(2-Aminoethyl)-8,9-difluoro-6-oxo-1,4,5,6-tetrahydro-2H-pyrano[3,4-c]isoquinolin-1-yl)-3-(3-chloro-4-fluorophenyl)-1-methylurea] | 3.1 µM |
| CN(C(=O)Nc1ccc(F)c(Cl)c1)[C@@H]1COCc2nc(OCCN)c3cc(F)c(F)cc3c21 [Compound 258, (S)-1-(6-(2-Aminoethoxy)-8,9-difluoro-1,4-dihydro-2H-pyrano[3,4-c]isoquinolin-1-yl)-3-(3-chloro-4-fluorophenyl)-1-methylurea] | 0.065 µM |

same assay, conditions: Hepatitis B virus, HepDE19, 168 h, read-out: DE-19bDNA EC50 (uM), inhibition of rcDNA formation in HepDE19 cells (HepG2 derived), Tet-free medium, 7 day incubation, Quantigene 2.0 bDNA readout, top concentration 25 μM

| SMILES | EC50 |
| --- | --- |
| CN(C(=O)N1Cc2ccc(C(F)(F)F)cc2C1)[C@@H]1COCc2[nH]c(=O)c3cc(F)c(F)cc3c21 [Compound 230, (S)—N-(8,9-Difluoro-6-oxo-1,4,5,6-tetrahydro-2H-pyrano[3,4-c]isoquinolin-1-yl)-N-methyl-5-(trifluoromethyl)isoindoline-2-carboxamide] | 24 µM |
